Measured values as given in a melting point compilation (Tetko et al.; mined from patent text by program, amines drawn as free bases though some values may be those of a salt).

SMILES | melting point
CCCCCC1=C(/C=C/C(=O)O)Cc2cc(OC)ccc21 | 165 to 166 °C
NS(=O)(=O)c1ccc(-n2nc(C(F)(F)F)cc2-c2ccc(-c3cscn3)c(O)c2)cc1F | 224 to 226 °C
CC(=O)OC(C)OC(=O)[C@H](Cc1ccc(-c2c(C)n(C)c(=O)n(C)c2=O)cc1)NC(=O)c1c(Cl)cccc1Cl (some centres undefined) | 168 to 170 °C
COC(=O)C1(Cc2ccc(Br)cc2)CCCN1C(=O)Nc1cc(Cl)cc(Cl)c1 (centres undefined) | 171 °C
O=[N+]([O-])c1cc(OCC2=CCCSC2)c(Cl)cc1F | 91 to 94 °C
Cc1nc(-n2cc(C(=O)Nc3ccccc3)ccc2=O)sc1C(=O)NCc1ccccc1 | 223 to 225 °C
COc1cc(C=C(C=O)C(C=O)=Cc2ccc(O)c(OC)c2)ccc1O | 177 to 178 °C
CS(=O)(=O)OCc1cn(-c2ccc(N3CCOCC3)c(F)c2)nn1 | 158 °C
CN(CCOc1ccc(C=CC=O)cc1F)c1ccccn1 | 93 to 94 °C
Cc1ccccc1-c1ccc(C(=O)N2Cc3ccc(C(=O)NCc4ccc(OC(F)(F)F)cc4)n3Cc3ccccc32)cc1C | 147 to 149 °C
COc1cccc2c(C(F)(F)F)cc(N3CCNCC3)nc12 | 130 °C
CC(C)(C)C1=C(c2cc3cc(O[Si](C)(C)C(C)(C)C)ccc3s2)OCC1(C)C | 88 to 89 °C
CCCCCCCc1cnc(-c2ccc(CCC(=O)OCC(F)(F)C(F)F)cc2)nc1 | 42 °C
CC(=NNc1ccc(-c2ccc(=O)n(C)n2)cc1)c1ccc(O)cc1O | 263 to 268 °C
CC(=O)Nc1nc(C)c(S(=O)(=O)N(C)CCO)s1 | 189 °C
Cc1ccccc1-c1cc(C#N)c(SSc2[nH]c(-c3ccccc3C)cc2C#N)[nH]1 | 248 to 249 °C
CCOC(=O)n1c(C(=O)c2ccccc2)c(N)c2c(Cl)cccc21 | 118 to 119 °C
O=[N+]([O-])c1ccc(NC=C(S(=O)(=O)c2ccccc2)S(=O)(=O)c2ccccc2)nc1 | 229 to 231 °C
O=C(O)c1cnn2c(-c3cccc(C(F)(F)F)c3)ccnc12 | 248 to 250 °C
CCOC(=O)CN1C(=O)C2=C(c3ccccc3)N(CC(=O)OCC)C(=O)C2=C1c1ccccc1 | 204 to 208 °C
COC(=O)CCCC#Cc1cc(F)cc(C(F)(F)F)c1 | 44 to 45 °C
COc1cc(OC)cc(N2CCN(C(=O)N(C)c3cc(C(C)OC)c(C)nc3OC)CC2)c1 (centres undefined) | 117 to 119 °C
COC(=O)C1=C(Cl)C(=NO)CC(c2ccc(Cl)c(OC)c2F)N1 (centres undefined) | 174 to 176 °C
COc1cc([N+](=O)[O-])c([N+](=O)[O-])cc1O | 172 °C
CCN(CC)c1ccc(/C=C(\C)c2ccc3c(c2)C(C)(C)CCC3(C)C)cc1 | 89 to 90 °C

SMILES | melting point
CCc1ccc2c(c1)C=Cc1cc(O)ccc1C2c1cn(-c2ccnc(NCC(=O)Nc3nc(CC(=O)O)cs3)n2)c(=O)[nH]c1=O (centres undefined) | 225 °C
c1ccc(C2(c3ccccc3)Oc3ccc(-c4nnn[nH]4)cc3O2)cc1 | 212 to 215 °C
Nc1cnn(CCO)c1N | 158 to 160 °C
COC(=O)c1ccc(NC=O)cc1S(=O)(=O)NC(C)(C)C | 113 to 114 °C
Cn1c(=O)cnn(-c2cc(N)c(Cl)cc2F)c1=O | 150 to 152 °C
CC(/C=C/C=C(\C)C1=Cc2cc(C(F)(F)F)ccc2OC1)=C\C(=O)O | 245 to 246 °C
CCOC(=O)c1cnn(-c2cccc(N(C)C)n2)c1S(N)(=O)=O | 157 to 160 °C
COc1cc(OC)nc(OC(C(=O)O)C(C)(C)CO)n1 (centres undefined) | 104 to 110 °C
Cc1cc(C(=O)O)ccc1C#CCc1ccc2c(c1)C(C)(C)CCC2(C)C | 196 to 197 °C
Cc1[nH]c2ccccc2c1CC(=O)N1CCN(C(c2ccc(F)cc2)c2ccc(F)cc2)CC1 | 93 to 103 °C
COc1cc(Nc2nc3cccc(-c4ccn[nH]4)c3o2)cc(OC)c1OC | 185 to 189 °C
COC(=O)NC(=S)Nc1cc(C(=O)c2ccccc2)ccc1NCc1ccccc1 | 75 to 79 °C
Cc1ccc(O)c(-c2ccc(Br)cc2)n1 | 196 to 199 °C
CC12CC(=O)C3C(CCC4CC(O)CCC43C)C1CCC2C(=O)CCOC(=O)CCl (centres undefined) | 95 to 97 °C
Cc1[nH]c2ccccc2c1CCCN1CCC(c2noc3ccccc23)CC1 | 110 to 112 °C
COc1cc(COc2ccccc2O)cc(OC)c1 | 55 to 57 °C
CCc1cn2c(N)c(Cl)cc(C(=O)NCC3CCN(CCc4ccc(C(C)(C)C)cc4)CC3)c2n1 | 220 °C
Cc1nc[nH]c1CSCCN=C(NC#N)NCCSCc1[nH]cnc1C | 92 to 95 °C
COc1cc(N)c(Cl)cc1C(=O)CCC1CCN(C(=O)OC(C)(C)C)CC1 | 133 to 134 °C
Cc1ccccc1C1(O)c2cc(NC(=O)CC(C)(C)C)c(C)c(C)c2OC1(C)C (centres undefined) | 111 to 112 °C
OC(Cc1ccccc1)(Cn1cncn1)c1ccccc1 (centres undefined) | 134 °C
CCC1=NC(=NOC(=O)NC)SC1(C)C | 98 to 100 °C
CCNCC1CCN(c2c(F)cc3c(=O)c(C(=O)O)cn(C4CC4)c3c2OC)C1 (centres undefined) | 217 to 219 °C
CC(C)(C)OC(=O)NC1CCN(c2nc3c(cc2F)c(=O)n(N)c(=O)n3C2CC2)C1 (centres undefined) | 108 to 110 °C
